Consider eight compounds from patent publication US12139503B2, “Borylated amino acid compositions for use in boron neutron capture therapy and methods thereof” (TAE Life Sciences, priority 2020, dated 2024).

Test [1] addresses T1, LAT-1 (Homo sapiens, UniProt Q01650).
T1 construct: host or cells: FaDu human nasopharyngeal carcinoma cells
Kind of test: LAT-1 mediated competition studies, boron uptake in FaDu cells. In kind it is cell-based. The note with it: HBSS, 2 hours, 37° C. The text has this: (§1) The FaDu cell line is a human nasopharyngeal carcinoma cell line. The cell line was obtained from the American Type Culture Collection (“ATCC”), located at 10801 University Boulevard Manassas, VA 20110-2209 USA in 2019. It has ATCC designation of HTB-43™ and lot number 70014320. FaDu cells are propagated in DMEM culture medium supplemented with 10% fetal bovine serum with routine passage by trypsinization and reseeding. The cell line is cryopreserved in liquid nitrogen.
(§2) Additionally, boron measurement was performed by ICP OES. on an Agilent 5110 ICP-OES. The data was analyzed using Agilent's ICP Expert Software, version 7.4.2.10790. Boron was measured axially at the 249.772 nm wavelength and the internal standard Beryllium was measured axially at the 313.042 nm wavelength. Beryllium internal standard was spiked into the solution at 1:5 the flowrate before introduction to the spray chamber via a T-connector. Finally, A standard curve using 1000, 100, 10, 1 and 0 ppb of boron was used to calculate the concentration of boron in each sample.
It has been shown that the system L transporter (LAT-1) mediates the transport of L-amino acids into cells and plays a major role in the uptake of BPA in BPA-based BNCT (WONGTHAI, et. al. Cancer Sci Vol. 106, pg. 279-286, 2015). To assess whether TLS00192 is transported via LAT-1 dependent mechanism we interrogated its ability to be outcompeted by the LAT1 substrate L-Phe FaDu cells were incubated in HBSS medium for two (2) hours at 37° C. with 0.5 mM of either TLS00192 or BPA-fructose in the absence (Subset A) or presence of increasing concentrations of competitor Phe (Subset B), L-system antagonist BCH (Subset C) or LAT-1 specific inhibitor JPH203 (Subset D). The cells were harvested, and the amount of each boronated cell associated compound was determined by ICP OES. The IC50s for the respective inhibitor on each compound is also indicated. BPA was used as a positive control for LAT-1-mediated uptake.

Test [2] relates to FaDu cells. Kind of test: Cellular retention of TLS00192 and BPA-fructose in FaDu cells. The note with it: sixteen (16) hours after initial 2 hour incubation. In kind it is cell-based, human.
Text: as §1, §2
Subsequently, to determine whether the efflux mediated by either LAT1 or LAT2 or other transporters is equal for BPA-fructose relative to TLS00192 in cellular retention tests in FaDu cells. […] Data is expressed as % residual boron content of time zero amount.

Test [3] relates to FaDu cells. Put plainly: Cellular retention of TLS00190, TLS00178 and BPA-Fructose in FaDu cells. In kind it is cell-based, human. How it is done: Subsequently, to determine whether the efflux mediated by either LAT1 or LAT2 or other transporters is equal for BPA-fructose relative to TLS00192 in cellular retention tests in FaDu cells. The “time zero” sample was immediately harvested following an initial two (2) hour incubation with the compounds. Cells were then harvested at indicated times and subjected to lysis, boron measurement, and protein content. Data is expressed as % residual boron content of time zero amount. In addition, the retention of TLS00190 and TLS00178 following initial 2 hour uptake compared to BPA-Fructose was also studied in FaDu cells.

For test [4], the system named is FaDu cells. Put plainly: Boron uptake of TLS00190 and TLS00178 in FaDu cells. The note with it: two (2) hour incubation. In kind it is cell-based, human.
Text: as §1
Additionally, boron measurement was performed by ICP OES. on an Agilent 5110 ICP-OES. The data was analyzed using Agilent's ICP Expert Software, version 7.4.2.10790. Boron was measured axially at the 249.772 nm wavelength and the internal standard Beryllium was measured axially at the 313.042 nm wavelength. Beryllium internal standard was spiked into the solution at 1:5 the flowrate before introduction to the spray chamber via a T-connector. […]
The efficiency of boron uptake of TLS00190 and TLS00178 was determined using FaDu cells. Following a two (2) hour incubation, cells were harvested and suspended in ice cold PBS and a portion was lysed in RIPA buffer and protein content determined by BCA assay. […] After two (2) hours of incubation the amount of the compounds taken up was determined based on the boron measurements.

For test [5], the system named is FaDu nasopharnygeal squamous carcinoma cells. Kind of test: Kinetic parameters of boron uptake in FaDu cells (ICP-OES). Type of test: cell-based, human. The note with it: Michaelis-Menton non-linear regression. The source says: To investigate the ability of TLS00192 to deliver boron to FaDu nasopharnygeal squamous carcinoma cells, we interrogated a range of concentrations bracketing what is hypothsized to be physiologically relevant amounts for boronophenylalanine (BPA), currently the most widely studied boron drug in BNCT clinical practice.
The FaDu cell line is a human nasopharyngeal carcinoma cell line. The cell line was obtained from the American Type Culture Collection (“ATCC”), located at 10801 University Boulevard Manassas, VA 20110-2209 USA in 2019. It has ATCC designation of HTB-43™ and lot number 70014320. […]
Additionally, boron measurement was performed by ICP OES. on an Agilent 5110 ICP-OES. The data was analyzed using Agilent's ICP Expert Software, version 7.4.2.10790. Boron was measured axially at the 249.772 nm wavelength and the internal standard Beryllium was measured axially at the 313.042 nm wavelength. […]
To determine the kinetic parameters of TLS00192, Boron compounds were added to FaDu cells at the final concentration of 2.5 mM in HBSS and the cells were incubated at 37° C., in a humidified 5% CO2 atmosphere for two (2) hrs with shaking. Following two (2) hour incubation, cells were harvested and suspended in ice cold PBS and lysed in RIPA buffer and protein content determined by BCA assay. […] Results were expressed as ng boron/per mg cell protein/per minute. […]

In test [6] the test system is intracranial tumor. Conditions: BNCT with beam directed to surgically exposed intracranial tumor; cited from earlier work.
Where [7] appears, read: 0.5 mM BPA-fructose as substrate, read-out: IC50 of competitor on boron uptake of BPA-Fructose.
The mark [8] stands for this setting: 0.5 mM TLS00192 as substrate, read-out: IC50 of competitor on boron uptake of TLS00192.
Setting [9] is: twenty (20) hrs after initial 2 hour uptake.

Read-outs that look alike come from different tables or passages of the source.

T1 sequence (Q01650 whole entry): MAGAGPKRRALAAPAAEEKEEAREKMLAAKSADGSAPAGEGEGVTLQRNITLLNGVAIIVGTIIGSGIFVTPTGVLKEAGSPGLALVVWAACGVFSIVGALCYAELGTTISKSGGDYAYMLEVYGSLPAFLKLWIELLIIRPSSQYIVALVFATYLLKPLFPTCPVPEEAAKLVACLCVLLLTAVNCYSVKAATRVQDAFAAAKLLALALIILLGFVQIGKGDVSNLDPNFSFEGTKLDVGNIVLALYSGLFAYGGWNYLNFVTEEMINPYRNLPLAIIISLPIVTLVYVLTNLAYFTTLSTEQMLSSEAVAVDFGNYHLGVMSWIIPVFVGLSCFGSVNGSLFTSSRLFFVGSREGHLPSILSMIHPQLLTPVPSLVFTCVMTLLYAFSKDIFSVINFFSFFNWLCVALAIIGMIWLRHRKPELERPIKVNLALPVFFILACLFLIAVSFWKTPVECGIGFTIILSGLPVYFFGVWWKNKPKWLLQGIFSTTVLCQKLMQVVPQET
T1 sequence (P08195 102-630 partner): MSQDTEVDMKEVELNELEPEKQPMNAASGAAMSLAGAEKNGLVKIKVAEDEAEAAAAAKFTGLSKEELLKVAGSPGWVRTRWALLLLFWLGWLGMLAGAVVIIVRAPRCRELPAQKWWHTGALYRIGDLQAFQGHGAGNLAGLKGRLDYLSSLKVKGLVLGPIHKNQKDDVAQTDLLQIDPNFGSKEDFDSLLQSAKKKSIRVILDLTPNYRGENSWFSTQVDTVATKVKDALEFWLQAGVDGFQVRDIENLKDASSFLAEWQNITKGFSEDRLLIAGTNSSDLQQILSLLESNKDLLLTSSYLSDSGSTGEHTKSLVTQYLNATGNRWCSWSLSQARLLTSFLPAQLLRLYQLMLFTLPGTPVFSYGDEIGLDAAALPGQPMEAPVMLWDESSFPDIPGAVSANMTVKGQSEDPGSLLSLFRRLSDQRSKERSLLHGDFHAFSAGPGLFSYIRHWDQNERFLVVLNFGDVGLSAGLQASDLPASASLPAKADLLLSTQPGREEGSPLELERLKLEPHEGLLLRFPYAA

By IC50 is commonly meant the concentration that inhibits the measured activity by half. As to `NC1(C(=O)O)CC2CCC1C2` (stereo not shown) [BCH, 2-aminobicyclo-(2,2,1)-heptane-2-carboxylic acid], the values for the IC50 in test [1] (setting [7]) and in test [1] (setting [8]) were 140 µM and 800 µM, respectively.

As for `N[C@@H](Cc1ccc(B(O)O)cc1)C(=O)O` [BPA, 4-Borono-L-phenylalanine], the “% residual boron content of time zero amount” value in test [2] is recorded as “approximately 10%”.

For `Nc1cc(COc2c(Cl)cc(C[C@H](N)C(=O)O)cc2Cl)c2oc(-c3ccccc3)nc2c1` [JPH203], the IC50 in test [1] (0.5 mM BPA-fructose as substrate, read-out: IC50 of inhibitor on LAT1-mediated uptake of BPA) was found to be 0.78 µM; in test [1] (0.5 mM TLS00192 as substrate, read-out: IC50 of inhibitor on LAT1-mediated uptake of TLS00192), 0.19 µM.

Regarding `N[C@@H](Cc1ccccc1)C(=O)O` [L-Phe, phenylalanine], the concentration for half-maximal inhibition (IC50) in test [1] (setting [7]) was found to be 40 µM; in test [1] (setting [8]), 430 µM.

With `CNC(=O)[C@@H](N)Cc1c[nH]cn1` [TLS00178], the “retention, cellular level remaining” value in test [3] (setting [9]) is on record as 57%. In test [4], the “boron uptake (ng boron per mg protein), result in words” value is reported as “retain the ability to be transported into FaDu cancer cells”.

For the compound `COCCOCCOc1ccc(C[C@H](N)C(=O)O)cc1` [TLS00190], the “retention, cellular level remaining” value is recorded as 43% in test [3] (setting [9]) and 14% in test [3] (two (2) hours after initial 2 hour uptake). Further, the “boron uptake (ng boron per mg protein), result in words” value in test [4] is given as “retain the ability to be transported into FaDu cancer cells”.

The term Km denotes the substrate concentration at which the rate is half of its maximum. Consider `N[C@@H](Cc1ccc(O)c(B(O)O)c1)C(=O)O` [TLS00192], for which, in test [2], the “% residual boron content of time zero amount” value was “greater than 40%”. The Michaelis constant (Km) in test [5] (2 hr incubation in HBSS at 37° C.) is 1970 µM. For the same compound, the “apparent Vmax” value in test [5] (2 hr incubation) is given as 15.87 ng boron mg^−1 min^−1.

Take undecahydrododecaborane thiol [BSH]: the 5-year survival rate in test [6] is on record as 58%.
